Experimental data taken from patent US7709548B2, “Method for manufacturing monosulfonium salt, cationic polymerization initiator, curable composition, and cured product” (San-Apro Limited, priority 2003, dated 2010).

Assay: Storage stability test (viscosity change of mixture with UVR-6110 stored at 80° C.)
Format: physicochemical
Details: measured at 25° C.; for Viscosity after storage for 1 week / Viscosity after storage for 2 weeks / Viscosity after storage for 4 weeks / Viscosity after storage for 6 weeks: stored at 80° C.
Protocol: As an acceleration test for storage stability, a mixture of the cationic polymerization initiator solution and a cationic polymerizable compound was evaluated by measuring its change in the viscosity when stored at a temperature of 80° C.
5 parts of a propylene carbonate solution of the cationic polymerization initiators used in each of Test Examples 5 and 9 was added to 100 parts UVR-6110 (the alicyclic epoxy resin, supra), and 200 g of this mixture was put in a 250 mL brown plastic bottle and stored in an 80° C. thermostat.
3 parts of a propylene carbonate solution of the cationic polymerization initiator used in each of Test Examples 12 and 15 were mixed with 100 parts UVR-6110, and 200 g of this mixture taken in a 250 ml brown plastic bottle and stored in an 80° C. thermostat.
The above-mentioned mixture was adjusted to 25° C. in a thermostatic tank that had been adjusted to 25° C., and the viscosity of the mixture was measured at the start of storage and after one, two, four, and six weeks.

[1] = 5 parts initiator solution per 100 parts UVR-6110
[2] = 3 parts initiator solution per 100 parts UVR-6110

Row | Compound | Viscosity after storage, At start [1] [mPa · s] | Viscosity after storage for 1 week [1] [mPa · s] | Viscosity after storage for 2 weeks [1] [mPa · s] | Viscosity after storage for 4 weeks [1] [mPa · s] | Viscosity after storage for 6 weeks [1] [mPa · s] | Viscosity after storage, At start [2] [mPa · s] | Viscosity after storage for 1 week [2] [mPa · s] | Viscosity after storage for 2 weeks [2] [mPa · s] | Viscosity after storage for 4 weeks [2] [mPa · s] | Viscosity after storage for 6 weeks [2] [mPa · s]
1 | F[P-](F)(F)(F)(F)F.c1ccc(Sc2ccc([S+](c3ccccc3)c3ccccc3)cc2)cc1 [Example 5, (4-phenylthiophenyl)diphenylsulfonium hexafluorophosphonate] | 480 | 480 | 480 | 500 | 500 |  |  |  |  | 
2 | (4-phenylthiophenyl)diphenylsulfonium hexafluoroantimonate [Example 8] |  |  |  |  |  | 470 | 470 | 470 | 510 | 650
